How the values were obtained:
50-58 kDa protein = experiment: LH-20 binding assay with purified 50-58 kDa binding protein from JURKAT cytosol; design: species or system human; settings: for Kd: 50-58 kDa protein from peripheral blood mononuclear leukocytes and JURKAT cytosol
Method: E. The reaction mixture, typically a 100 μl aliquot run in duplicate, is poured onto a column of convenient dimension, such as 0.8×7.0 cm of a molecular sieve matrix such as LH-20 Sephadex (Pharmacia Fine Chemicals, Piscataway, N.J.).
The S-100 fraction was further filtered (0.45 μm pore size membrane, Gelman Sciences), the filtrate (2.9 mg protein) passed through a 600×7.5 nun Bio-Sil-125 HPLC exclusion column at a flow rate of 1.0 ml/minute in 10 mM phosphate buffer, pH 6.8; protein elution was monitored at 280 nm. Fractions (1 ml) were collected and analyzed for binding of ^3 H-dihydro FK-506 using the previously described LH-20 assay, Donnelly et al., 1991, above, which is herein incorporated by reference. Specific binding was determined by assaying each fraction without (total binding) and with ([…]) an excess of unlabeled FK-506.
The 58 kDa protein was purified from 1.4×10^10 human T-cells (JURKAT). The S-100 fraction (10 ml) was centrifuged at 2500×g for 1 hour at 4° C. in a 30 kDa Centriprep™ concentrator (Amicon Corp., Danvers, Ma.). The concentrate (1 ml) was diluted with 15 ml of 10 mM phosphate buffer, pH 6.8, and concentrated down to 5 ml. This step removed proteins of less than 30 kDa, i.e., cyclophilin and FKBP, from the S-100 fraction.
[…] FK-506 and CsA drugs was refocused under the same conditions, using only the ampholytes contained in the 2.7 ml fraction (diluted to 55 ml with deionized water). Focusing was complete when a constant voltage of 2200 was reached.
The 20 fractions were assayed for drug binding as above. […] This fraction (3.02 mg in 2.7 ml) was chromatographed in a Bio-Sil-125 HPLC column at a flow rate of 1.0 ml/minute in 10 mM phosphate buffer, pH 6.8. Fractions representing proteins of 50-60 kDa were screened for binding to both FK-506 and CsA.
Binding fractions were probed and chromatographed on a Beckman TSK CM-25W Spherogel column (26×4.6 mm) at a flow rate of 0.5 ml/minute in 10 mM phosphate buffer, pH 6.8. Fractions containing binding activity were probed and used for binding assays.
The binding assay was the LH-20 assay of Example 1.
The LH binding assay was used for generating the competition curve of FIG. 4.

immune responses = settings: fold greater than cyclosporine A; cited from earlier work
FKBP [1] = settings: FKBP isolated from yeast, calf thymus and human T cells (JURKAT); cited from earlier work
[2] = tested on: experimental immunopathies; settings: rats; cited from earlier work
[3] = tested on: 17 kDa (presumably cyclophilin) and 50 kDa cyclosporine A binding proteins; experiment: Binding of 3H-cyclosporine A to HPLC fractions of JURKAT S-100 cytosol (LH-20 assay); design: species or system human; settings: rapamycin at 70 nM; either protein (17 kDa, 50 kDa)
Excerpt: The experimental conditions of Example 1A were repeated, except that ^3 H-cyclosporine A and unlabeled cyclosporine A were substituted for FK-506.

FKBP [4] = target: FKBP (Homo sapiens, UniProt P62942); settings: cited from earlier work
FKBP (Homo sapiens, UniProt P62942), sequence (P62942 whole entry): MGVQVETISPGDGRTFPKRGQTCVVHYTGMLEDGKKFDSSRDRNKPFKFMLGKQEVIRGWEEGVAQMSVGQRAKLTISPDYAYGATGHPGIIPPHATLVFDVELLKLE

Candida albicans = settings: especially Candida albicans; cited from earlier work

SMILES | inhibition of CsA binding (50-58 kDa protein; 50-58 kDa protein) | Kd (50-58 kDa protein) | potency of inhibiting immune responses relative to cyclosporine A (immune responses) | Kd (FKBP [1]) | effect on binding of 3H-CsA (50-58 kDa protein; RAP at 300 nM, purified 58 kDa protein) | IC50 (50-58 kDa protein; inhibition of specific binding of 3H-dihydro FK-506 to purified 58 kDa protein, read-out: B50 value) | inhibition of specific binding of 3H-dihydro FK-506 (50-58 kDa protein; purified 58 kDa protein, RAP 0.005-500 nM) | development of experimental immunopathies and formation of IgE-like antibody [2] | effect on binding of cyclosporine A [3] | inhibition of isomerase activity of FKBP (FKBP [4]) | activity against Candida species (Candida albicans)
C=CC[C@@H]1/C=C(\C)C[C@H](C)C[C@H](OC)[C@H]2O[C@@](O)(C(=O)C(=O)N3CCCC[C@H]3C(=O)O[C@H](/C(C)=C/[C@@H]3CC[C@@H](O)[C@H](OC)C3)[C@H](C)[C@@H](O)CC1=O)[C@H](C)C[C@@H]2OC [FK-506] | inhibited by FK-506 in a dose-dependent manner | 2 nM | 100-500 fold | 0.4 nM | – | – | – | – | – | – | –
CO[C@H]1C[C@@H]2CC[C@@H](C)[C@@](O)(O2)C(=O)C(=O)N2CCCC[C@H]2C(=O)O[C@H]([C@H](C)C[C@@H]2CC[C@@H](O)[C@H](OC)C2)CC(=O)[C@H](C)/C=C(\C)[C@@H](O)[C@@H](OC)C(=O)[C@H](C)C[C@H](C)/C=C/C=C/C=C/1C [RAP, Rapamycin] | – | 0.1 nM | – | – | unaffected | 0.1 nM | inhibited in a dose-dependent manner | totally prevented | did not affect | potent inhibitor | highly active

Source: patent publication US5322772A (Children's Research Institute, priority 1991, dated 1994)
